Laboratory results taken from ChEMBL document CHEMBL4715849, “Recent Progress in the Discovery of Antifungal Agents Targeting the Cell Wall” (J Med Chem, 2020).
≈ marks a conversion by molar mass, not a printed value. Square brackets hold non-standard residues; d marks the D form. Peptide text beside a SMILES is read from it. * marks the point of attachment. Fumaryl(OMe) = COC(=O)/C=C/C(=O)*; Dap = NC[C@H](N)C(=O)O

Key:
Candida albicans [1] = test: Antifungal activity against Candida albicans AMB-25 incubated for 48 hrs by serial two-fold dilution method; assay type: functional
Candida albicans [2] = test: Antifungal activity against Candida albicans ATCC 262 incubated for 24 hrs by turbidimetric method; assay type: functional
Candida albicans [3] = test: Antifungal activity against Candida albicans incubated for 24 hrs by turbidimetric method; assay type: functional
Candida parapsilosis [4] = test: Antifungal activity against Candida parapsilosis K332 by agar incorporation method; assay type: functional; details: Lodderomyces parapsilosis
Candida albicans [5] = test: Antifungal activity against Candida albicans K341 by agar incorporation method; assay type: functional
Candida albicans [6] = test: Antifungal activity against Candida albicans K1082 by agar incorporation method; assay type: functional
Candida tropicalis [7] = test: Antifungal activity against Candida tropicalis K337 by agar incorporation method; assay type: functional
Candida albicans [8] = test: Antifungal activity against Candida albicans K1133 by agar incorporation method; assay type: functional
Candida parapsilosis [9] = test: Antifungal activity against Candida parapsilosis K1154 by agar incorporation method; assay type: functional; details: Lodderomyces parapsilosis
Candida tropicalis [10] = test: Antifungal activity against Candida tropicalis K1155 by agar incorporation method; assay type: functional
Candida albicans [11] = test: Antifungal activity against Candida albicans K335 by agar incorporation method; assay type: functional
Pichia kudriavzevii = test: Antifungal activity against Candida krusei K1153 by agar incorporation method; assay type: functional
[12] = tested on: Meyerozyma guilliermondii; test: Antifungal activity against Candida guilliermondii K334 by agar incorporation method; assay type: functional
Cyberlindnera jadinii = test: Antifungal activity against Candida utilis K482 by agar incorporation method; assay type: functional; details: Williopsis jadinii
Candida albicans [13] = test: Antifungal activity against Candida albicans Ca2323/ORF6.945 by CLSI method; assay type: functional
Candida albicans [14] = test: Antifungal activity against Candida albicans Ca1055 by CLSI method; assay type: functional
Candida parapsilosis [15] = test: Antifungal activity against Candida parapsilosis ATCC22019 by CLSI method; assay type: functional; details: Lodderomyces parapsilosis
[16] = Inhibition of Candida albicans IFO1060 1,3-beta-D-glucan synthase
Aspergillus fumigatus = test: Antifungal activity against Aspergillus fumigatus CF1083 infected in iv dosed mouse model of pulmonary aspergillosis administered once daily for 4 days and measured on day 14; assay type: functional; details: 336 h, time 14 day
[17] = Inhibition of fungi 1,3-beta-D-glucan synthase

Structure (SMILES): COC(=O)/C=C/C(=O)NC[C@H](NC(=O)[C@H](N)Cc1ccccc1)C(=O)O
- MIC (Candida albicans [1]): 0.4 µg/mL (≈ 1.1 µM)

Structure (SMILES): COC(=O)/C=C/C(=O)NC[C@H](NC(=O)[C@H](N)C(C)C)C(=O)O
- MIC (Candida albicans [1]): 0.4 µg/mL (≈ 1.27 µM)

Structure (SMILES): COC(=O)/C=C/C(=O)NC[C@H](NC(=O)[C@@H](N)CCSC)C(=O)N[C@@H](CCSC)C(=O)O
- MIC (Candida albicans [2]): 0.025 µg/mL (≈ 0.0522 µM)
- MIC (Candida albicans [3]): 0.025 µg/mL (≈ 0.0522 µM)

Structure (SMILES): CCCCC/C=C/C=C/C(=O)OC[C@H]1O[C@@H](O[C@H]2[C@H](OC(=O)/C=C/C=C/C[C@H](O)/C(C)=C/C=C/CC[C@@H](C)CC)[C@@H](O)[C@@]3(OCc4cc(O)cc(O)c43)O[C@@H]2CO)[C@H](O)[C@@H](O)[C@H]1O
- MIC (Candida parapsilosis [4]): 0.1 µg/mL (≈ 0.113 µM)
- MIC (Candida albicans [5]): 0.1 µg/mL (≈ 0.113 µM)
- MIC (Candida albicans [6]): 0.1 µg/mL (≈ 0.113 µM)
- MIC (Candida tropicalis [7]): 0.1 µg/mL (≈ 0.113 µM)
- MIC (Candida albicans [8]): 0.1 µg/mL (≈ 0.113 µM)
- MIC (Candida parapsilosis [9]): 0.1 µg/mL (≈ 0.113 µM)
- MIC (Candida tropicalis [10]): 0.1 µg/mL (≈ 0.113 µM)
- MIC (Candida albicans [11]): 0.1 µg/mL (≈ 0.113 µM)
- MIC (Pichia kudriavzevii): 0.1 µg/mL (≈ 0.113 µM)
- MIC [12]: 0.1 µg/mL (≈ 0.113 µM)
- MIC (Cyberlindnera jadinii): 0.1 µg/mL (≈ 0.113 µM)

Structure (SMILES): CC[C@H](C)CC/C=C/C=C(\C)[C@@H](O)C/C=C/C=C/C(=O)O[C@H]1[C@H](O)[C@@H](CO)O[C@]2(OCc3cc(O)cc(O)c32)[C@@H]1O
- MIC (Candida parapsilosis [4]): 0.1 µg/mL (≈ 0.174 µM)
- MIC (Candida albicans [5]): 0.1 µg/mL (≈ 0.174 µM)
- MIC (Candida albicans [6]): 0.1 µg/mL (≈ 0.174 µM)
- MIC (Candida tropicalis [7]): 0.1 µg/mL (≈ 0.174 µM)
- MIC (Candida albicans [8]): 0.1 µg/mL (≈ 0.174 µM)
- MIC (Candida parapsilosis [9]): 0.1 µg/mL (≈ 0.174 µM)
- MIC (Candida tropicalis [10]): 0.1 µg/mL (≈ 0.174 µM)
- MIC (Candida albicans [11]): 0.1 µg/mL (≈ 0.174 µM)
- MIC (Pichia kudriavzevii): 0.1 µg/mL (≈ 0.174 µM)
- MIC [12]: 0.1 µg/mL (≈ 0.174 µM)
- MIC (Cyberlindnera jadinii): 0.1 µg/mL (≈ 0.174 µM)

Structure (SMILES): COC(=O)/C=C/C(=O)NC[C@H](NC(=O)CN)C(=O)O
- MIC (Candida albicans [1]): 0.4 µg/mL (≈ 1.46 µM)

Structure (SMILES): COC(=O)/C=C/C(=O)NC[C@H](NC(=O)[C@H](C)NC(=O)[C@@H](N)CCSC)C(N)=O
- MIC (Candida albicans [2]): 0.025 µg/mL (≈ 0.0599 µM)
- MIC (Candida albicans [3]): 0.025 µg/mL (≈ 0.0599 µM)

Structure (SMILES): CCCC(C)Oc1cccc(NC(=O)c2cccnc2)c1 (centres undefined)
- MIC (Candida albicans [13]): 4 µg/mL (≈ 14.1 µM)
- MIC (Candida albicans [14]): 4 µg/mL (≈ 14.1 µM)
- MIC (Candida parapsilosis [15]): 8 µg/mL (≈ 28.1 µM)

Structure (SMILES): COC(=O)/C=C/C(=O)NC[C@H](NC(=O)[C@H](N)CCSC)C(=O)O
- MIC (Candida albicans [1]): 0.4 µg/mL (≈ 1.15 µM)

Structure (SMILES): CCCC(NC(=O)[C@@H](N)CCSC)C(=O)N[C@@H](CNC(=O)/C=C/C(=O)OC)C(N)=O (some centres undefined)
- MIC (Candida albicans [2]): 0.025 µg/mL (≈ 0.0561 µM)
- MIC (Candida albicans [3]): 0.025 µg/mL (≈ 0.0561 µM)

Structure (SMILES): CCCCCCCCCCCCC[C@H]1OC(=O)[C@H](CCCN(CCN)CCN)NC(=O)[C@@H]([C@@H](C)O)NC(=O)CNC(=O)[C@H]([C@H](O)CC(N)=O)NC(=O)[C@H]2[C@@H](O)CCN2C(=O)[C@H]([C@@H](C)O)NC(=O)[C@@H]2C[C@@H](O)CN2C(=O)[C@H](C(C)C)NC(=O)[C@H](Cc2ccc(O)cc2)NC(=O)[C@@H](C)NC(=O)[C@H]([C@@H](C)O)NC1=O
- IC50 [16]: 2 nM

Structure (SMILES): CCCC(NC(=O)[C@@H](N)CNC(=O)/C=C/C(=O)OC)C(=O)O (some centres undefined)
- MIC (Candida albicans [1]): 0.4 µg/mL (≈ 1.27 µM)

Structure (SMILES): COC(=O)/C=C/C(=O)NC[C@H](N)C(=O)N[C@H](C(=O)O)C(C)C
- MIC (Candida albicans [1]): 0.4 µg/mL (≈ 1.27 µM)

Structure (SMILES): COC(=O)/C=C/C(=O)NC[C@H](N)C(=O)N[C@@H](C)C(=O)O
- MIC (Candida albicans [1]): 0.4 µg/mL (≈ 1.39 µM)

Structure (SMILES): COC(=O)/C=C/C(=O)NC[C@H](NC(=O)[C@@H](C)N)C(=O)O
- MIC (Candida albicans [1]): 0.4 µg/mL (≈ 1.39 µM)

Structure (SMILES): COC(=O)/C=C/C(=O)NC[C@H](NC(=O)[C@H](CCSC)NC(=O)[C@@H](N)CCSC)C(N)=O
- MIC (Candida albicans [2]): 0.025 µg/mL (≈ 0.0523 µM)
- MIC (Candida albicans [3]): 0.025 µg/mL (≈ 0.0523 µM)

Structure (SMILES): COC(=O)/C=C/C(=O)NC[C@H](NC(=O)[C@H](N)CC(C)C)C(=O)O
- MIC (Candida albicans [1]): 0.4 µg/mL (≈ 1.21 µM)

Structure (SMILES): CCCCCCCCCCCCC[C@H]1OC(=O)[C@H](CCCN(CCCN)C(=O)[C@H](CCCN)N(CCN)CCN)NC(=O)[C@@H]([C@@H](C)O)NC(=O)CNC(=O)[C@H]([C@H](O)CC(N)=O)NC(=O)[C@H]2[C@@H](O)CCN2C(=O)[C@H]([C@@H](C)O)NC(=O)[C@@H]2C[C@@H](O)CN2C(=O)[C@H](C(C)C)NC(=O)[C@H](Cc2ccc(O)cc2)NC(=O)[C@@H](C)NC(=O)[C@H]([C@@H](C)O)NC1=O
- ED50 (Aspergillus fumigatus): 5.2 mg/kg
- IC50 [17]: 0.25 nM

Structure (SMILES): COC(=O)/C=C/C(=O)NC[C@H](NC(=O)[C@H](CCSC)NC(=O)[C@H](CCSC)NC(=O)[C@H](CCSC)NC(=O)[C@@H](N)CCSC)C(=O)O (H-MMMM[Dap](Fumaryl(OMe))-OH)
- MIC (Candida albicans [2]): 0.025 µg/mL (≈ 0.0337 µM)
- MIC (Candida albicans [3]): 0.025 µg/mL (≈ 0.0337 µM)

Structure (SMILES): COC(=O)/C=C/C(=O)NC[C@H](NC(=O)[C@H](CCSC)NC(=O)[C@H](CCSC)NC(=O)[C@@H](N)CNC(=O)/C=C/C(=O)OC)C(=O)O (H-[Dap](Fumaryl(OMe))MM[Dap](Fumaryl(OMe))-OH)
- MIC (Candida albicans [2]): 0.025 µg/mL (≈ 0.0369 µM)
- MIC (Candida albicans [3]): 0.025 µg/mL (≈ 0.0369 µM)
